What was measured:
[1] = test system: bovine tubulin; experiment: Site of binding to tubulin (colchicine-tubulin fluorescence); details: tubulin 5.0 μM, 100 μM drug 30 min, then colchicine 10 μM 60 min
Experimental: (C) Tubulin (5.0 μM) was incubated for 30 min with 100 μM vinblastine, 100 μM flubendazole, or buffer control. […] A representative figure is shown.
The site of flubendazole binding was determined similar to Gupta et al^19. Bovine tubulin (5.0 μM) was incubated with 100 μM flubendazole, 100 μM vinblastine or buffer control for 30 min at 37° C.

[2] = test system: PPC-1 cells; experiment: Cell cycle analysis (PI, flow cytometry), PPC-1; format: cell-based; details: PPC-1, 1.0 μM, 24 h
Experimental: OCI-AML2 cells (A) or PPC-1 cells (B) were incubated with 1.0 μM flubendazole or buffer control for 24 h. Cells were then stained with PI and the DNA content was measured by flow cytometry. A representative figure is shown.
Cell cycle analysis was performed as described by Mao et al^31. Briefly, OCI-AML2 or PPC-1 cells were harvested, washed with cold PBS and resuspended in PBS and cold absolute ethanol. Cells were then treated with 100 ng/mL of DNase-free RNase A (Invitrogen, Carlsbad, Calif.) at 37° C. for 30 min, washed with cold PBS, resuspended in PBS and incubated with 50 μg/mL of propidium iodine (PI) for 15 min at room temperature in the dark. DNA content was measured by flow cytometry (FACSCalibur, Becton Dickinson, Florida, USA) and analyzed with FlowJo software version 7.0 (TreeStar, Ashland, Oreg.).

[3] = test system: KB-4.0-HTI; experiment: MTS assay, KB-4.0-HTI (α-tubulin mutant); format: cell-based
Experimental: Next, whether microtubule inhibition was functionally important for flubendazole's cytotoxicity was determined.
(§1) Leukemia (U937, MDAY, CEM, CEM-VBL) and solid tumor cell lines (PPC-1, HeLa) were cultured in RPMI 1640 medium. The epidermoid carcinoma cell lines KB-3-1 and KB-4.0-HTI^23 were grown in Dulbecco's Modified Eagle Medium. The lung carcinoma cell lines A549 and A549.EpoB40 were grown in RPMI with the latter supplemented with 20% fetal calf serum (FCS), and 40 nM epothilone B.^24 Leukemia cell lines OCI-AML2, CEM, and NB4 and all the myeloma cell lines (OPM2, KMS11, JJN3 LP1, H929, L1, KMS12, KSM18 and OCI My5) were maintained in Iscove's Modified Dulbecco's Medium (IMDM). TEX cells were maintained in IMDM, 15% FCS, 1% penicillin-streptomycin, 2 mM L-glutamine, 20 ng/mL SCF, 2 ng/mL IL-3. Unless otherwise noted, all media were supplemented with 10% FCS, 100 units/mL of streptomycin and 100 μg/mL of penicillin (all from Hyclone, Logan, Utah). Cells were incubated in a humidified air atmosphere containing 5% CO2 at 37° C.
Cell growth and viability was measured using the 3-(4,5-dimethylthiazol-2-yl)-5-(3-carboxymethoxyphenyl)-2-(4-sulfophenyl)-2H-tetrazolium inner salt (MTS) reduction assay (Promega, Madison, Wis.) according to the manufacture's protocol and as previously described^25. […] Optical density (OD) was measured at 490 nm.

[4] = test system: OPM2 cells
Experimental: (C) Sub-lethally irradiated SCID mice were injected subcutaneously with OPM2 cells (n=20; 10 per group). […] Tumor volume and body weight was measured over time. After 17 days, mice were sacrificed and tumors were excised, measured and weighted.
Sub-lethally irradiated SCID mice were injected subcutaneously in the left flank with leukemia OCI-AML2 (2.0×10^6) or myeloma OPM2 (1.0×10^7) cells. Mice were then randomly assigned to receive flubendazole (in 0.9% NaCl and 0.01% tween-80) or vehicle control (0.9% NaCl and 0.01% tween-80) intraperitoneally. […] Tumor volumes (tumor length×width^2×0.5236) were monitored daily using calipers. At the end of the experiment (16-18 days), mice were sacrificed, tumors excised and tumor volume and weight measured. All animal studies were carried out according to the regulations of the Canadian Council on Animal Care and with the approval of the local ethics review board.

[5] = test system: OCI-AML2 cells; experiment: Radioactive glucose uptake assay; format: cell-based; details: concentrations up to 4.0 μM, 16 hours
Experimental: (A) OCI-AML2 cells were incubated with increasing concentrations of flubendazole for 16 h and the uptake of 3H-deoxy-D-glucose was measured as in the materials and methods. Data represent the mean±SD glucose uptake. A representative experiment is shown.
The effect of flubendazole on the uptake of 2-deoxy-D-glucose in OCI-AML2 cells was performed using a radioactive glucose uptake assay as described by Wood et al^27. […] Uptake of 2-deoxy-D-glucose was initiated by the addition of 10 μM 2-deoxy-D-glucose and 1 μCi/mL 2-[^3H]deoxy-D-glucose in the HEPES-buffered saline solution at room temperature. After 5 min of incubation, 2-deoxy-D-glucose uptake was terminated by rinsing the cells three times with a 25 mM ice-cold glucose solution, followed by cell disruption with 0.05 N NaOH. Protein concentration was measured by the modified Bradford protein assay and cell-associated radioactivity was determined by scintillation counting. The mean counts per minute are expressed as picomoles/min/mg protein.

[6] = test system: CEM-VBL; experiment: MTS assay, CEM-VBL (Pgp over-expressing); format: cell-based
Experimental: Over-expression of P-glycoprotein (Pgp, MDR1) renders cells resistant to vinca alkaloid microtubule inhibitors.^43 Therefore, the effects of Pgp over-expression on flubendazole's cytotoxicity were tested. CEM-VBL cells over-express Pgp,^44 which was confirmed with a rhodamine dye exclusion assay. CEM wild type and CEM-VBL cells were treated with increasing concentrations of flubendazole or vinblastine and cell viability measured by the MTS assay (Table 1). […] In contrast, CEM-VBL cells over-expressing Pgp were resistant to vinblastine at concentrations greater than 5.0 μM (Table 1).
as §1
Cell growth and viability was measured using the 3-(4,5-dimethylthiazol-2-yl)-5-(3-carboxymethoxyphenyl)-2-(4-sulfophenyl)-2H-tetrazolium inner salt (MTS) reduction assay (Promega, Madison, Wis.) according to the manufacture's protocol and as previously described^25. Cells were seeded in 96 well plates and treated with drug for 72 h. Optical density (OD) was measured at 490 nm.

[7] = test system: bovine tubulin; experiment: Tubulin polymerization assay; format: biochemical; details: cell-free, bovine tubulin 1.8 mg/ml; flubendazole 100 μM
Experimental: A representative figure is shown.
Polymerization of bovine tubulin was measured according to Beyer et al^28. Briefly, bovine tubulin (1.8 mg/ml; Cytoskeleton; Denver, USA) was added to ice cold polymerization buffer (PEM; 80 mM PIPES, 0.5 mM EGTA, 2 mM MgCl2, 10% glycerol and 1 mM GTP) and centrifuged at top speed in a microcentrifuge for 5 min at 4° C. […] Following addition of tubulin, the plate was immediately placed in the spectrophotometer, which was maintained at 37° C., and the absorbance measured every 3 minutes for 2.5 h at 340 nm.

[8] = OPM2 xenograft, 50 mg/kg daily intraperitoneally for 17 days, vs vehicle, p<0.05

COC(=O)Nc1nc2ccc(C(=O)c3ccc(F)cc3)cc2[nH]1 [flubendazole]
colchicine fluorescence (colchicine binding to tubulin) [1]: decreased colchicine fluorescence
cell cycle [2]: arrested cells in the G2 phase
IC50 ([3]; KB-4.0-HTI, MTS assay, 3 replicates): 12.5 ± 1.8 µM
IC50 higher in KB-4.0-HTI than in KB-3-1 wild type cells ([3]; ratio of IC50 values of Table 1): 7 fold
tumor growth [4, 8]: significantly delayed tumor growth
tumor weights [4, 8]: reduced tumor weights
weight loss, behavioral changes or gross organ toxicity ([4]; mouse, in vivo): no evidence of weight loss, behavioral changes or gross organ toxicity
uptake of 3H-deoxy-D-glucose [5]: did not alter glucose uptake
IC50 ([6]; CEM-VBL, 3 replicates): 2.7 ± 1.2 µM
sensitivity of CEM-VBL cells compared to wild type controls ([6]; Pgp over-expression): fully sensitive
effect on tubulin polymerization / microtubule formation [7]: inhibited tubulin polymerization

Source: patent US20120202840A1, “Use of Flubendazole and Vinca Alkaloids for Treatment of Hematological Diseases” (priority 2009, published 2012)
